In PubChem BioAssay AID1963984 (Molecular Pharmacology Branch, DTP, NCI, 2024):
pIC50: −log10 of the molar value.

Test system: 233499-124-R-J3-PDC spheroids with HUVEC/MSC, viability
Experiment: Anticancer human tumor 233499-124-R-J3-PDC patient-derived colon adenocarcinoma cell line growth inhibition [PI3K]
Conditions: for viability, T/C: stronger effect = lower value
How it was run: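 Three cell types, namely tumor cells, endothelial cells and mesenchymal stem cells, formed each spheroid. Combinations with four PI3K inhibitors were screened at clinically achievable concentrations decreasing by half-log, and spheroid viability was recorded.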

[1] = curve of first compound, second compound 0.0316 µM
[2] = curve of first compound, second compound 0.1 µM
[3] = curve of first compound, second compound 0.316 µM
[4] = curve of first compound, second compound 1 µM
[5] = second compound 0.0316 µM, first compound 0.0316 µM
[6] = second compound 0.0316 µM, first compound 0.1 µM
[7] = second compound 0.1 µM, first compound 0.0316 µM
[8] = second compound 0.1 µM, first compound 0.1 µM
[9] = second compound 0.316 µM, first compound 0.0316 µM
[10] = second compound 0.316 µM, first compound 0.1 µM
[11] = second compound 1 µM, first compound 0.0316 µM
[12] = second compound 1 µM, first compound 0.1 µM
[13] = curve of first compound, second compound 3.16 µM
[14] = curve of first compound, second compound 10 µM
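Note: spheroids exposed to agents for seven days before readout.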
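Throughout, for viability, T/C: percent viability relative to DMSO vehicle control taken as 100%.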

Structure (SMILES): C#Cc1c(F)ccc2cc(O)cc(-c3ncc4c(N5CC6CCC(C5)N6)nc(OCC56CCCN5CC(F)C6)nc4c3F)c12 (stereo not drawn) + COc1c(OCCCN2CCOCC2)ccc2c3n(c(=NC(=O)c4cnc(N)nc4)nc12)CCN3
- pIC50 (curve of first compound, second compound 0.00316 µM): < 5.00
- pIC50 (curve of first compound, second compound 0.01 µM): < 5.00
- pIC50 [1]: < 5.00
- pIC50 [2]: 5.65
- pIC50 [3]: > 7.50
- pIC50 [4]: > 7.50
- viability, T/C (second compound 0.00316 µM, first compound 0.0316 µM): 85.5%
- viability, T/C (second compound 0.00316 µM, first compound 0.1 µM): 100%
- viability, T/C (second compound 0.00316 µM, first compound 0.316 µM): 82.9%
- viability, T/C (second compound 0.00316 µM, first compound 1 µM): 95.1%
- viability, T/C (second compound 0.00316 µM, first compound 3.16 µM): 81%
- viability, T/C (second compound 0.00316 µM, first compound 10 µM): 67.2%
- viability, T/C (second compound 0.01 µM, first compound 0.0316 µM): 81.5%
- viability, T/C (second compound 0.01 µM, first compound 0.1 µM): 95.2%
- viability, T/C (second compound 0.01 µM, first compound 0.316 µM): 86.9%
- viability, T/C (second compound 0.01 µM, first compound 1 µM): 91.6%
- viability, T/C (second compound 0.01 µM, first compound 3.16 µM): 81.2%
- viability, T/C (second compound 0.01 µM, first compound 10 µM): 80.8%
- viability, T/C [5]: 93.3%
- viability, T/C [6]: 91.3%
- viability, T/C (second compound 0.0316 µM, first compound 0.316 µM): 74.8%
- viability, T/C (second compound 0.0316 µM, first compound 1 µM): 92.7%
- viability, T/C (second compound 0.0316 µM, first compound 3.16 µM): 71.2%
- viability, T/C (second compound 0.0316 µM, first compound 10 µM): 68.7%
- viability, T/C [7]: 62.6%
- viability, T/C [8]: 86.5%
- viability, T/C (second compound 0.1 µM, first compound 0.316 µM): 71.2%
- viability, T/C (second compound 0.1 µM, first compound 1 µM): 63.5%
- viability, T/C (second compound 0.1 µM, first compound 3.16 µM): 44.3%
- viability, T/C (second compound 0.1 µM, first compound 10 µM): 29.7%
- viability, T/C [9]: 24.9%
- viability, T/C [10]: 26%
- viability, T/C (second compound 0.316 µM, first compound 0.316 µM): 27.1%
- viability, T/C (second compound 0.316 µM, first compound 1 µM): 11.7%
- viability, T/C (second compound 0.316 µM, first compound 3.16 µM): 13.3%
- viability, T/C (second compound 0.316 µM, first compound 10 µM): 4.16%
- viability, T/C [11]: 4.26%
- viability, T/C [12]: 9.48%
- viability, T/C (second compound 1 µM, first compound 0.316 µM): 8.52%
- viability, T/C (second compound 1 µM, first compound 1 µM): 3.87%
- viability, T/C (second compound 1 µM, first compound 3.16 µM): 4.18%
- viability, T/C (second compound 1 µM, first compound 10 µM): 2.6%

Structure (SMILES): CC(Nc1ncnc2nc[nH]c12)c1cc2cccc(Cl)c2c(=O)n1-c1ccccc1 (stereo not drawn)
- viability, T/C (compound 0.0316 µM): 93.9% [middle of 8 runs]
- viability, T/C (compound 0.1 µM): 97.2% [middle of 8 runs]
- viability, T/C (compound 0.316 µM): 95.8% [middle of 8 runs]
- viability, T/C (compound 1 µM): 103% [middle of 8 runs]
- viability, T/C (compound 3.16 µM): 100% [middle of 8 runs]
- viability, T/C (compound 10 µM): 89.7% [middle of 8 runs]
- pIC50 (compound alone, run of 05/09/2023): < 5.00

Structure (SMILES): Cn1ncnc1[C@H]1c2n[nH]c(=O)c3cc(F)cc(c23)N[C@@H]1c1ccc(F)cc1 + CC(Nc1ncnc2nc[nH]c12)c1cc2cccc(Cl)c2c(=O)n1-c1ccccc1
- pIC50 [1]: < 7.00
- pIC50 [2]: < 7.00
- pIC50 [3]: < 7.00
- pIC50 [4]: < 7.00
- pIC50 [13]: < 7.00
- pIC50 [14]: < 7.00
- viability, T/C (second compound 0.0316 µM, first compound 0.000316 µM): 90.9%
- viability, T/C (second compound 0.0316 µM, first compound 0.001 µM): 82%
- viability, T/C (second compound 0.0316 µM, first compound 0.00316 µM): 84.9%
- viability, T/C (second compound 0.0316 µM, first compound 0.01 µM): 87.8%
- viability, T/C [5]: 75.4%
- viability, T/C [6]: 69%
- viability, T/C (second compound 0.1 µM, first compound 0.000316 µM): 99.7%
- viability, T/C (second compound 0.1 µM, first compound 0.001 µM): 106%
- viability, T/C (second compound 0.1 µM, first compound 0.00316 µM): 70.9%
- viability, T/C (second compound 0.1 µM, first compound 0.01 µM): 73.4%
- viability, T/C [7]: 74.1%
- viability, T/C [8]: 72.2%
- viability, T/C (second compound 0.316 µM, first compound 0.000316 µM): 90%
- viability, T/C (second compound 0.316 µM, first compound 0.001 µM): 94.7%
- viability, T/C (second compound 0.316 µM, first compound 0.00316 µM): 70.3%
- viability, T/C (second compound 0.316 µM, first compound 0.01 µM): 76.7%
- viability, T/C [9]: 64.9%
- viability, T/C [10]: 70%
- viability, T/C (second compound 1 µM, first compound 0.000316 µM): 85.7%
- viability, T/C (second compound 1 µM, first compound 0.001 µM): 77.8%
- viability, T/C (second compound 1 µM, first compound 0.00316 µM): 89%
- viability, T/C (second compound 1 µM, first compound 0.01 µM): 84.2%
- viability, T/C [11]: 77.7%
- viability, T/C [12]: 54.1%
- viability, T/C (second compound 3.16 µM, first compound 0.000316 µM): 79.9%
- viability, T/C (second compound 3.16 µM, first compound 0.001 µM): 85.9%
- viability, T/C (second compound 3.16 µM, first compound 0.00316 µM): 90.3%
- viability, T/C (second compound 3.16 µM, first compound 0.01 µM): 82.4%
- viability, T/C (second compound 3.16 µM, first compound 0.0316 µM): 76.8%
- viability, T/C (second compound 3.16 µM, first compound 0.1 µM): 76.5%
- viability, T/C (second compound 10 µM, first compound 0.000316 µM): 89.7%
- viability, T/C (second compound 10 µM, first compound 0.001 µM): 71.3%
- viability, T/C (second compound 10 µM, first compound 0.00316 µM): 85.2%
- viability, T/C (second compound 10 µM, first compound 0.01 µM): 92.3%
- viability, T/C (second compound 10 µM, first compound 0.0316 µM): 66.9%
- viability, T/C (second compound 10 µM, first compound 0.1 µM): 72.2%

Structure (SMILES): Cn1cnc2c(F)c(Nc3ccc(Br)cc3Cl)c(C(=O)NOCCO)cc21 + Cc1nc(NC(=O)N2CCCC2C(N)=O)sc1-c1ccnc(C(C)(C)C(F)(F)F)c1
- pIC50 [1]: 6.70
- pIC50 [2]: 7.06
- pIC50 [3]: 7.06
- pIC50 [4]: 7.60
- pIC50 [13]: > 8.02
- pIC50 [14]: > 8.02
- viability, T/C (second compound 0.0316 µM, first compound 0.00949 µM): 88.1%
- viability, T/C (second compound 0.0316 µM, first compound 0.03 µM): 84.8%
- viability, T/C (second compound 0.0316 µM, first compound 0.0949 µM): 57%
- viability, T/C (second compound 0.0316 µM, first compound 0.3 µM): 47.3%
- viability, T/C (second compound 0.0316 µM, first compound 0.949 µM): 52%
- viability, T/C (second compound 0.0316 µM, first compound 3 µM): 37.3%
- viability, T/C (second compound 0.1 µM, first compound 0.00949 µM): 86.8%
- viability, T/C (second compound 0.1 µM, first compound 0.03 µM): 68%
- viability, T/C (second compound 0.1 µM, first compound 0.0949 µM): 39%
- viability, T/C (second compound 0.1 µM, first compound 0.3 µM): 45.9%
- viability, T/C (second compound 0.1 µM, first compound 0.949 µM): 28.4%
- viability, T/C (second compound 0.1 µM, first compound 3 µM): 20.2%
- viability, T/C (second compound 0.316 µM, first compound 0.00949 µM): 64.2%
- viability, T/C (second compound 0.316 µM, first compound 0.03 µM): 63.5%
- viability, T/C (second compound 0.316 µM, first compound 0.0949 µM): 35.1%
- viability, T/C (second compound 0.316 µM, first compound 0.3 µM): 57.2%
- viability, T/C (second compound 0.316 µM, first compound 0.949 µM): 30.3%
- viability, T/C (second compound 0.316 µM, first compound 3 µM): 32.6%
- viability, T/C (second compound 1 µM, first compound 0.00949 µM): 88.5%
- viability, T/C (second compound 1 µM, first compound 0.03 µM): 39.5%
- viability, T/C (second compound 1 µM, first compound 0.0949 µM): 36.1%
- viability, T/C (second compound 1 µM, first compound 0.3 µM): 27.8%
- viability, T/C (second compound 1 µM, first compound 0.949 µM): 29.1%
- viability, T/C (second compound 1 µM, first compound 3 µM): 19.6%
- viability, T/C (second compound 3.16 µM, first compound 0.00949 µM): 32.8%
- viability, T/C (second compound 3.16 µM, first compound 0.03 µM): 34%
- viability, T/C (second compound 3.16 µM, first compound 0.0949 µM): 24.2%
- viability, T/C (second compound 3.16 µM, first compound 0.3 µM): 11.5%
- viability, T/C (second compound 3.16 µM, first compound 0.949 µM): 15.7%
- viability, T/C (second compound 3.16 µM, first compound 3 µM): 8.72%
- viability, T/C (second compound 10 µM, first compound 0.00949 µM): 22.3%
- viability, T/C (second compound 10 µM, first compound 0.03 µM): 19.2%
- viability, T/C (second compound 10 µM, first compound 0.0949 µM): 8.64%
- viability, T/C (second compound 10 µM, first compound 0.3 µM): 5.65%
- viability, T/C (second compound 10 µM, first compound 0.949 µM): 7.32%
- viability, T/C (second compound 10 µM, first compound 3 µM): 7.06%
